Assay results as given in patent EP2322149A1, “Methods and compositions for the treatment of ischemia” (Universidad del Pais Vasco, priority 2009, dated 2011).
“Also recorded” adds a separate entry of the source. Where a name gives a salt, the structure may show the parent alone.

Key:
P2X2 = biological target: T1, P2X2 (Homo sapiens, UniProt Q9UBL9); conditions: read-out: IC50 P2X2; cited from earlier work
T1 sequence (Q9UBL9 1-471): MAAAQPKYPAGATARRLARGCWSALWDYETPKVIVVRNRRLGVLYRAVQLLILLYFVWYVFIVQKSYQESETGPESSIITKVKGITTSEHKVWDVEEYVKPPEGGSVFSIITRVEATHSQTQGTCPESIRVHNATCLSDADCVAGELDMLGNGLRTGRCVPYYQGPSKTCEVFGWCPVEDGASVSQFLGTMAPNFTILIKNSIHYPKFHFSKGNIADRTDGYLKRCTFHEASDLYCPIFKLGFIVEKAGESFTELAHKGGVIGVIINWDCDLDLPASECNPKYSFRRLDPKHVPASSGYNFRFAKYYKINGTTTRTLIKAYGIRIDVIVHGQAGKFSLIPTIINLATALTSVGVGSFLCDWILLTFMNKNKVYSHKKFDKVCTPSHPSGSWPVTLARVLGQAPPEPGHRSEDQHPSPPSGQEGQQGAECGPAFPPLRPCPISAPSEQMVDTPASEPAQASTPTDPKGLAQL

[1] = system: optic nerve oligodendrocytes; assay: Oxygen and glucose deprivation (OGD) cell death in oligodendrocyte cultures (calcein-AM); format: cell-based, Sprague-Dawley rats; conditions: 1h OGD, calcein 24h later; PPADS 100 µM, BBG 50 nM, CNQX 30 µM, APV 100 µM, apyrase 20 U/ml, ARL67156 100 µM, CBX 20 µM, FFA 100 µM, MFQ 1 nM
Protocol: (§1) Primary cultures of oligodendrocytes derived from optic nerves of 12 day-old Sprague-Dawley rats were obtained as previously described (Matute et al., 1997 Proc Natl Acad Sci U S A 94:8830-8835.).Cells were maintained at 37°C and 5% CO2 in a chemically defined medium (Matute et al., 1997 Proc Natl Acad Sci U S A 94:8830-8835.). After 2-4 days in vitro, cultures were composed of at least 98% 04/Ga1C^+ cells. No microglial cells were detected in these cultures. […] Cell death was determined 24h later using calcein-AM (Invitrogen) as previously described (Matute et al., 1997 Proc Natl Acad Sci U S A 94:8830-8835.). Antagonists were present during in vitro ischaemia and during the next 24h incubation period. […] To assay the levels of reactive oxygen species (ROS), cells were loaded with 40 µM 2',7'- dichlorodihyfluoresceindiacetate (DCFDA; Invitrogen) and 1 µM calcein red-orange (Molecular Probes) immediately after OGD. Calcein was used to quantify the number of cells within the reading field. Fluorescence was measured as above and values were plotted as the percentage of DCFDA/calcein red-orange fluorescence versus control. The changes in mitochondrial membrane potential were monitored with 5,5',6,6'-tetrachloro-1,1',3,3'-tetraethylbenzimidazolcarbocyanine iodide (JC-1; Molecular Probes). Immediately after OGD, cells were loaded with JC-1 (3 µM) at 37°C for 30 min. The changes in the membrane potential were calculated as the red (emission at 590)/green (emission at 520) ratio in each condition and results were normalized to control.

[2] = system: cultured optic nerve oligodendrocytes; assay: ATP release measurement (luciferin/luciferase) in oligodendrocyte cultures after OGD; format: cell-based, Sprague-Dawley rats
Protocol: as §1
ATP levels were measured using a Luciferin/Luciferase assay kit (Invitrogen) after 1h normoxia or OGD in oligodendrocyte cultures and in isolated optic nerves according to the manufacturer's instructions. The luminescence was measured with a luminometer Synergy-HT (BioTek) with an integration time of 3 sec. Because ATP was measured in the culture medium and in the solution bathing optic nerves, the concentration of ATP at the extracellular surface, near the vicinity of the receptor was underestimated (Joseph et al., 2003. J Biol Chem 278:23331-23342). The limit of ATP detection was 1 nM and luminescence was linear with increasing ATP concentrations to 1000 nM. The total amount of ATP was calculated according to standard curves and ATP release was expressed in percentage vs control.

optic nerves = assay: Optic nerve ischaemia (OGD), tissue damage by LDH release; set-up: species or system rats; conditions: P28 rat optic nerves, 1h OGD + 2h reperfusion; PPADS 1 mM, BBG 50 nM, oATP 1 mM, apyrase 20 U/ml, MFQ 1 µM, CBX 100 µM, FFA 1 mM
Protocol: After 1h OGD at 37°C, the medium was replaced with fresh solution containing glucose and equilibrated with 95% O2, 5% CO2 and the nerves were incubated for another 2h at 37°C to simulate reperfusion.

P2X7 = biological target: T2, P2X7 (Homo sapiens, UniProt Q99572); conditions: cited from earlier work
T2 sequence (Q99572 1-595): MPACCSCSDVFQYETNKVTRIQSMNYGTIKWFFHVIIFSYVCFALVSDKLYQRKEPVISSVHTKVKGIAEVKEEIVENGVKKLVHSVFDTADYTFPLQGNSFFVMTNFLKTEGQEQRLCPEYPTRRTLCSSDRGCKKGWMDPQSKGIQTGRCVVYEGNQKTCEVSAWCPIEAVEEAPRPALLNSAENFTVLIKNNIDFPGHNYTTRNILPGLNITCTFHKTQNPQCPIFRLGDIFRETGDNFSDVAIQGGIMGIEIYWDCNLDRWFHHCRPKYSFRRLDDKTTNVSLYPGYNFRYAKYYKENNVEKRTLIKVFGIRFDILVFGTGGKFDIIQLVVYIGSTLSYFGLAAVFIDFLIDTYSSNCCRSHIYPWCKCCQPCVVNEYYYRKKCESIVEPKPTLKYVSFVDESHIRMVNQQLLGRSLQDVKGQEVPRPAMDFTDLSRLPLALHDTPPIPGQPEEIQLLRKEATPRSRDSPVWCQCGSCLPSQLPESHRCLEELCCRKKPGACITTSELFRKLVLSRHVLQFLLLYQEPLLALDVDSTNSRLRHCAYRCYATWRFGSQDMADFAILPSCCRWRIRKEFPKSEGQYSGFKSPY

P2X1 = biological target: T3, P2X1 (Homo sapiens, UniProt P51575); conditions: read-out: IC50 P2X1; cited from earlier work
T3 sequence (P51575 1-399): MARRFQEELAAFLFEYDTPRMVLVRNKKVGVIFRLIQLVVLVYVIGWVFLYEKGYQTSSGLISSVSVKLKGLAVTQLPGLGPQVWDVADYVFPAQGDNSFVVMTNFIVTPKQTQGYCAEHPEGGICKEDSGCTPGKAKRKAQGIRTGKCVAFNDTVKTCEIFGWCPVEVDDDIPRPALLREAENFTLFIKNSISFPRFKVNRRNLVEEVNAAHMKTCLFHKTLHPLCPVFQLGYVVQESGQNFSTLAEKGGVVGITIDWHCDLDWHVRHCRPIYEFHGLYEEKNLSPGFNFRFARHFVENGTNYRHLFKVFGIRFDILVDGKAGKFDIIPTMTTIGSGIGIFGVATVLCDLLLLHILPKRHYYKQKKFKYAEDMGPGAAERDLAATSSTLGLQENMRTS

P2X3 = biological target: T4, P2X3 (Homo sapiens, UniProt P56373); conditions: read-out: IC50 P2X3; cited from earlier work
T4 sequence (P56373 1-397): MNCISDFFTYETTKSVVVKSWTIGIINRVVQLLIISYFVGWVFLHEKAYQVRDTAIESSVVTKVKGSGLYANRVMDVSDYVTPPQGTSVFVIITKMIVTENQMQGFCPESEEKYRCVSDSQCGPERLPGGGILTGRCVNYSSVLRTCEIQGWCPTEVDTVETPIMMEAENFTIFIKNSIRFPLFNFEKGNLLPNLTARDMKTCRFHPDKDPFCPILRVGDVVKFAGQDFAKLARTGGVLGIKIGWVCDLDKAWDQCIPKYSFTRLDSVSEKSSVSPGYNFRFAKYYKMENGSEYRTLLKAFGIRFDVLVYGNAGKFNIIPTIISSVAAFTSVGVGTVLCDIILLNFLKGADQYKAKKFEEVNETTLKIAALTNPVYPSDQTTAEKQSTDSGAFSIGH

P2X6 = P2X6 (Homo sapiens, UniProt O15547); conditions: read-out: IC50 P2X6; cited from earlier work
Sequence of P2X6 (O15547 whole entry, species assumed): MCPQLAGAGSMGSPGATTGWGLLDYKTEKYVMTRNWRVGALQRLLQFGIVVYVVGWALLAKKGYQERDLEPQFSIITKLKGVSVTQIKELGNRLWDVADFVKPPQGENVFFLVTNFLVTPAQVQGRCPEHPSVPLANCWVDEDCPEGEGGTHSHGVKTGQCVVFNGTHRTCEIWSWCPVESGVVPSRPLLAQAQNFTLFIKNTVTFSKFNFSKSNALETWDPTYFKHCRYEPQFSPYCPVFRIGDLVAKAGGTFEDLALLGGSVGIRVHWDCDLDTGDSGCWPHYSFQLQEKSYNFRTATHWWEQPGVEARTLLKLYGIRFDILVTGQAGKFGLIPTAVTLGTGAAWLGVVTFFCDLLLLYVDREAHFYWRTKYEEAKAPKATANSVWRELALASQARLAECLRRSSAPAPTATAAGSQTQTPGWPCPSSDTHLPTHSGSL

Row | Compound | IC50 (P2X2) | IC50 (P2X7) | IC50 (P2X3) | further results
1 | 1-amino-4-[[4-[[4-chloro-6-[[3 (or 4)-sulfophenyl]amino]-1,3,5-triazin-2-yl]amino]-3-sulfophenyl]amino]-9,10-dihydro-9,10-dioxo-2-anthracenesulfonic acid [RB-2] | 1 µM |  |  | 
2 | CCN(CC)c1ncnc2c1ncn2[C@@H]1O[C@H](COP(=O)(O)OP(=O)(O)C(Br)(Br)P(=O)(O)O)[C@@H](O)[C@H]1O [ARL67156] |  |  |  | OGD-induced oligodendrocyte cell death [1]: increased; also recorded: potentiated; ATP concentration after OGD ([2]; 1h OGD, ARL67156 100 µM, percentage vs control, OGD alone 181.2 ± 25.3 %): 439.6 ± 71.0%; ATP release after 1h OGD ([2]; ARL67156 100 µM): potentiated
3 | O=C(O)c1ccccc1Nc1cccc(C(F)(F)F)c1 [FFA, 2-[3-(trifluoromethyl)anilino]benzoic acid] |  |  |  | OGD-induced oligodendrocyte cell death [1]: inhibited; ATP levels after OGD ([2]; 1h OGD in the presence of ARL67156, CBX 20 µM, FFA 100 µM, MFQ 1 nM (figure legend)): significantly reduced; ischaemia-induced damage to optic nerves (LDH release) (optic nerves): reduced; also recorded: attenuated
4 | NC(N)=NC(=O)c1nc(Cl)c(N2CCCCCC2)nc1N [HMA] |  | 4.5 µM |  | 
5 | CN([C@@H](Cc1ccc(OS(=O)(=O)c2cccc3cnccc23)cc1)C(=O)N1CCN(c2ccccc2)CC1)S(=O)(=O)c1cccc2cnccc12 [KN-62, ester of 4-[(2S)-2-[(5-isoquinolinylsulfonyl)methylamino]-3-oxo-3-(4-phenyl-1-piperazinyl)propyl] phenyl isoquinolinesulfonic acid] |  | 0.015 µM |  | 
6 | Cc1nc(N=Nc2cc(S(=O)(=O)O)ccc2S(=O)(=O)O)c2c(c1O)COP(=O)(O)OC2 [MRS2220, cyclic pyridoxine-alpha.4,5-monophosphate-6-azo-phenyl-2',5'disulfonate] |  |  | 58 µM | IC50 (P2X1): 10 µM
7 | O=C(Nc1ccc(C(=O)Nc2ccc(C(=O)Nc3ccc(S(=O)(=O)O)c4cc(S(=O)(=O)O)cc(S(=O)(=O)O)c34)cc2)cc1)Nc1ccc(C(=O)Nc2ccc(C(=O)Nc3ccc(S(=O)(=O)O)c4cc(S(=O)(=O)O)cc(S(=O)(=O)O)c34)cc2)cc1 [NF279] | 0.77 µM | 2.8 µM | 1.6 µM | IC50 (P2X1): 2 µM
8 | O=C(Nc1cc(C(=O)Nc2ccc(S(=O)(=O)O)cc2S(=O)(=O)O)cc(C(=O)Nc2ccc(S(=O)(=O)O)cc2S(=O)(=O)O)c1)Nc1cc(C(=O)Nc2ccc(S(=O)(=O)O)cc2S(=O)(=O)O)cc(C(=O)Nc2ccc(S(=O)(=O)O)cc2S(=O)(=O)O)c1 [NF449, octasodium salt of 4,4',4",4"'-(carbonylbis(imino-5,1,3-benzenetriylbis(carbonylimino)))tetrakis-benzene-1,3-disulfonic acid] |  |  | < 0.006 µM | 
9 | Cc1nc(N=Nc2cc(S(=O)(=O)O)c3cc([N+](=O)[O-])cc(S(=O)(=O)O)c3c2)c(CO[P+]([O-])(O)O)c(C=O)c1O [PPNDS] | 0.015 µM |  |  | 
10 | Cc1ccc(C(=O)Nc2ccc(S(=O)(=O)O)c3cc(S(=O)(=O)O)cc(S(=O)(=O)O)c23)cc1NC(=O)c1cccc(NC(=O)Nc2cccc(C(=O)Nc3cc(C(=O)Nc4ccc(S(=O)(=O)O)c5cc(S(=O)(=O)O)cc(S(=O)(=O)O)c45)ccc3C)c2)c1 [Suramin, hexasodium salt of 8,8'-[carbonylbis[imino-3,1-phenylenecarbonylimino(4-methyl-3,1-phenylene)carbonylimino]] bisnaphthalene-1,3,5-trisulphonic acid] | 1 to 5 µM |  |  | IC50 (P2X6): > 100 µM
11 | Nc1ncnc2c1ncn2[C@@H]1O[C@H](COP(=O)(O)OP(=O)(O)OP(=O)(O)O)[C@H]2OC3(O[C@H]21)C([N+](=O)[O-])=CC(=[N+]([O-])[O-])C=C3[N+](=O)[O-] (stereo partly shown) [TNP-ATP, monolithium salt of 2',3'-O-2,4,6-trinitrophenyl-adenosine 5'-triphosphate] |  | > 30 µM |  | 
12 | Cc1nc(/N=N/c2cc(S(=O)(=O)O)ccc2S(=O)(=O)O)c(COP(=O)(O)O)c(C=O)c1O [isoPPADS, tetrasodium salt of pyridoxalphosphate-6-azophenyl-1',4'-disulfonic acid] |  |  | 1 µM | IC50 (P2X1): 1 to 5 µM
